The term inhibition denotes the change of the read-out against control, counted positive when it falls.

Calls of active or inactive are those of the source. The rule behind the calls is not given here.

The nature of experiment [1]: Cytotoxicity against human MCF7 cells assessed as inhibition of cell survival rate at 50 uM after 48 hrs by MTT assay relative to control. It is filed as functional. Particulars: MCF7, 48 h. On the technique in general: Tetrazolium assays rely on reduction of a dye to a coloured formazan, in cell work by metabolically active cells.
Experiment [2] has as its system NCI/ADR-RES. Put plainly: Inhibition of P-gp in human MCF7/ADR cells assessed as increase in intracellular adriamycin accumulation at 10 uM after 3 hrs by flow cytometry relative to control. It is filed as cell-based.
For experiment [3], the system named is NCI/ADR-RES. Put plainly: Inhibition of P-gp in human MCF7/ADR cells assessed as increase in intracellular adriamycin accumulation at 20 uM after 3 hrs by flow cytometry. It is filed as cell-based. For orientation: Flow cytometry measures light scatter and fluorescence of single cells or particles in a stream.
Experiment [4] deals with NCI/ADR-RES. The experiment in a line: Inhibition of P-gp in human MCF7/ADR cells assessed as potentiation of adriamycin-induced cytotoxic activity at 20 uM after 48 hrs by MTT assay relative to control. It is filed as cell-based.
Experiment [5] relates to NCI/ADR-RES. The experiment in a line: Inhibition of P-gp in human MCF7/ADR cells assessed as increase in intracellular rhodamine123 accumulation at 10 to 20 uM incubated for 4 hrs in dark condition by flow cytometry. It counts as cell-based.

Regarding `CC(=O)O[C@H]1[C@H](OC(=O)c2cccnc2)[C@@]2(C)C(C)=CC[C@@H](O)[C@@H]2[C@@]2(C)[C@@H](OC(=O)c3cccnc3)C[C@@]3(COC(=O)C3)O[C@@]12C`, the inhibition at 50 µM in experiment [1] worked out at 14.3%. Moreover, the inhibition result in experiment [2], in experiment [3] and in experiment [5] was “Active” throughout. Also, in experiment [4], the fold change (FC) amounted to 29.1.

As to `CC1=CCC[C@H]2[C@@]1(C)[C@@H](OC(=O)c1cccnc1)[C@H](O)[C@](C)(O)[C@]2(C)CCC1=C(O)C(=O)OC1`, the inhibition at 50 µM in experiment [1] turned out to be 28.5%. Also, in experiment [4], the fold change (FC) was 11.5.

Turning to `CC(=O)O[C@H]1[C@H](OC(C)=O)[C@]2(C)O[C@@]3(CC[C@]2(C)[C@H]2[C@H](OC(=O)c4cccnc4)CC=C(C)[C@]12C)COC(=O)C3` (relative stereo), the inhibition at 50 µM in experiment [1] came out at 16.6%. Besides, the inhibition result in experiment [2], in experiment [3] and in experiment [5] was “Active” throughout. In experiment [4], the fold change (FC) is 11.5.

Take `CC1=CC[C@@H](OC(=O)c2cccnc2)[C@H]2[C@@]1(C)[C@H]1O[C@@](O)(C(C)C)C(=O)O[C@@H]1[C@]1(C)O[C@@]3(CC[C@]21C)COC(=O)C3`: the inhibition at 50 µM in experiment [1] is 20.6%. The inhibition entry in experiment [2], in experiment [3] and in experiment [5] was “Active” in each case. The fold change (FC) in experiment [4] was found to be 12.2.

Regarding `CC1=CC[C@@H](O)[C@H]2[C@@]1(C)[C@@H](OC(=O)c1cccnc1)[C@H](O)[C@]1(C)O[C@]3(COC(=O)C3O)C[C@H](OC(=O)c3cccnc3)[C@]21C` (relative stereo), the inhibition at 50 µM in experiment [1] is 19.5%. Also, the fold change (FC) in experiment [4] was determined as 7.9.

As to `CC1=CCC[C@H]2[C@@]1(C)[C@@H](OC(=O)c1cccnc1)[C@H](OC(=O)c1cccnc1)[C@](C)(O)[C@]2(C)/C=C/C1=CC(=O)OC1`, in experiment [1], the inhibition at 50 µM worked out at 31.4%. The fold change (FC) in experiment [4] came out at 4.6.

Regarding `CC(=O)OC(C(=O)O[C@H]1[C@H](OC(=O)c2cccnc2)[C@@]2(C)C(C)=CCC[C@@H]2[C@@](C)(/C=C/C2=CC(=O)OC2)[C@@]1(C)O)C(C)C` (stereo partly specified), the inhibition at 50 µM in experiment [1] is 23.8%. In experiment [4], the fold change (FC) came to 11.4.

Turning to `CC1=CCC[C@H]2[C@@]1(C)[C@@H](OC(=O)c1cccnc1)[C@H](OC(=O)c1cccnc1)[C@](C)(O)[C@]2(C)/C=C\C1=CC(=O)OC1`, the inhibition at 50 µM in experiment [1] turned out to be 18.8%. For the same compound, the fold change (FC) in experiment [4] worked out at 13.1.

`CC(=O)OC[C@@]12[C@@H](OC(C)=O)C[C@@H](C)[C@](C)(C3O[C@@H]4OC[C@@H](OC(=O)c5cccnc5)[C@@H]4[C@@H]3O)[C@H]1CCC[C@]21CO1` (stereo partly specified): the inhibition at 50 µM in experiment [1] was 25.2%. The fold change (FC) in experiment [4] was found to be 2.8.

Regarding `CC1=CCC[C@H]2[C@@]1(C)[C@@H](OC(=O)c1cccnc1)[C@H](OC(=O)c1ccccc1)[C@](C)(O)[C@]2(C)/C=C\C1=CC(=O)OC1`, the inhibition at 50 µM in experiment [1] was 17.4%. Besides, the fold change (FC) in experiment [4] worked out at 9.

Take `CC(=O)O[C@@H](CC1=C(O)C(=O)OC1)[C@]1(C)[C@H]2CCC=C(C)[C@]2(C)[C@@H](OC(=O)c2cccnc2)[C@H](OC(=O)c2cccnc2)[C@]1(C)O`: in experiment [1], the inhibition at 50 µM was 17.1%. The fold change (FC) in experiment [4] is 3.3.

In the case of `CC(=O)OC(C(=O)O[C@H]1[C@H](OC(=O)c2cccnc2)[C@@]2(C)C(C)=CCC[C@@H]2[C@@](C)(CCC2=C(O)C(=O)OC2)[C@@]1(C)O)C(C)C` (stereo partly specified), the inhibition at 50 µM in experiment [1] was found to be 37.6%. In experiment [4], the fold change (FC) came out at 3.

Consider `CC1=CC[C@@H](OC(=O)c2ccccc2)[C@H]2[C@@]1(C)[C@@H](OC(=O)c1cccnc1)[C@H](O)[C@]1(C)O[C@@]3(CC[C@]21C)COC(=O)C3`, for which, in experiment [1], the inhibition at 50 µM is 41.3%. For the same compound, the inhibition result in experiment [2], in experiment [3] and in experiment [5] was “Active” in each case. Also, the fold change (FC) in experiment [4] was determined as 33.4.

With `CC1=CC[C@@H](OC(=O)c2cccnc2)[C@H]2[C@@]1(C)[C@@H](OC(=O)c1cccnc1)[C@H](O)[C@]1(C)O[C@@]3(CC[C@]21C)COC(=O)C3`, in experiment [1], the inhibition at 50 µM is 15.1%. In addition, the inhibition result in experiment [2], in experiment [3] and in experiment [5] was “Active” in each case. Moreover, in experiment [4], the fold change (FC) came out at 11.4.

Turning to `CC(=O)O[C@H]1[C@H](OC(C)=O)[C@]2(C)O[C@]3(CC[C@]2(C)[C@H]2[C@H](OC(=O)c4cccnc4)CC=C(C)[C@]12C)COC(=O)C3`, the inhibition at 50 µM in experiment [1] was determined as 19.5%. In addition, the fold change (FC) in experiment [4] was 13. In addition, the inhibition result in experiment [5] is “Active”.

As to `CC1=CCC[C@H]2[C@@]1(C)[C@@H](OC(=O)c1cccnc1)[C@H](OC(=O)C(C)C)[C@](C)(O)[C@]2(C)/C=C/C1=CC(=O)OC1`, the inhibition at 50 µM in experiment [1] turned out to be 19.1%. Also, the fold change (FC) in experiment [4] is 6.3.

Turning to `CC1=CCC[C@H]2[C@@]1(C)[C@@H](OC(=O)c1cccnc1)[C@H](OC(=O)c1ccccc1)[C@](C)(O)[C@]2(C)/C=C/C1=CC(=O)OC1`, the inhibition at 50 µM in experiment [1] came to 23.8%. In addition, the fold change (FC) in experiment [4] turned out to be 10.1.

In the case of `CC1=CC[C@@H](O)[C@H]2[C@@]1(C)[C@@H](OC(=O)c1cccnc1)[C@H](O)[C@]1(C)O[C@]3(COC(=O)C3)C[C@H](OC(=O)c3cccnc3)[C@]21C` (relative stereo), the inhibition at 50 µM in experiment [1] was 14.6%. In experiment [4], the fold change (FC) stood at 7.5.

For the compound `CC1=CC[C@@H](OC(=O)c2cccnc2)[C@H]2[C@@]1(C)[C@@H](OC(=O)c1cccnc1)[C@H](OC(=O)c1cccnc1)[C@]1(C)O[C@]3(CC[C@]21C)COC(=O)C3`, the inhibition at 50 µM in experiment [1] worked out at 40.6%. The values for the fold change (FC) in experiment [2] and in experiment [4] were 2.27 and 29.6, respectively. In addition, the inhibition result in experiment [3] and in experiment [5] was “Active” each time.

For `CC(=O)O[C@H]1[C@H](OC(=O)c2cccnc2)[C@@]2(C)C(C)=CC[C@@H](OC(=O)c3cccnc3)[C@@H]2[C@@]2(C)CC[C@@]3(COC(=O)C3)O[C@@]12C`, the inhibition at 50 µM in experiment [1] amounted to 35.7%. In addition, the figures for the fold change (FC) in experiment [2] and in experiment [4] were 2.36 and 37.7, respectively. Further, the inhibition entry in experiment [3] and in experiment [5] was “Active” each time.

Turning to `CC1=CC[C@@H](OC(=O)c2ccccc2)[C@H]2[C@@]1(C)[C@@H](OC(=O)c1cccnc1)[C@H](O)[C@]1(C)O[C@]3(CC[C@]21C)COC(=O)C3` (relative stereo), the inhibition at 50 µM in experiment [1] was 20.1%. The inhibition result in experiment [2], in experiment [3] and in experiment [5] was “Active” each time. Also, the fold change (FC) in experiment [4] stood at 17.8.

As for `CC(=O)O[C@@H](CC1=C(O)C(=O)OC1)[C@]1(C)[C@H]2CCC=C(C)[C@]2(C)[C@@H](OC(=O)c2cccnc2)[C@H](OC(=O)c2ccccc2)[C@]1(C)O`, in experiment [1], the inhibition at 50 µM came out at 23.1%. Also, the fold change (FC) in experiment [4] worked out at 2.

Consider `CC(=O)O[C@@H](CC1=C(O)C(=O)OC1)[C@]1(C)[C@H]2CCC=C(C)[C@]2(C)[C@@H](OC(=O)c2cccnc2)[C@H](O)[C@]1(C)O`, for which the inhibition at 50 µM in experiment [1] came to 18.5%. Also, the fold change (FC) in experiment [4] stood at 1.5.

For the origin of these results see ChEMBL document CHEMBL3856213, “neo-Clerodane diterpenoids from Scutellaria barbata mediated inhibition of P-glycoprotein in MCF-7/ADR cells” (Eur J Med Chem, 2016).
